Laboratory results reported in US7863271B2, “2-aminobenzoxazole carboxamides as 5HT3 modulators” (Albany Molecular Research, Inc., priority 2006, dated 2011).
Structures can show the parent of a compound that is named as a salt.

target: T1, 5-HT3 (Homo sapiens, UniProt P46098); test: Compound affinity for the human 5-HT3 receptor (Assay B), SPA radioligand binding with [9-methyl-3H]BRL-43694; parameters: purchased Perkin Elmer; details: Assay B (method B unless otherwise annotated); read-out: 5-HT3 Ki
T1 sequence (P46098 24-478): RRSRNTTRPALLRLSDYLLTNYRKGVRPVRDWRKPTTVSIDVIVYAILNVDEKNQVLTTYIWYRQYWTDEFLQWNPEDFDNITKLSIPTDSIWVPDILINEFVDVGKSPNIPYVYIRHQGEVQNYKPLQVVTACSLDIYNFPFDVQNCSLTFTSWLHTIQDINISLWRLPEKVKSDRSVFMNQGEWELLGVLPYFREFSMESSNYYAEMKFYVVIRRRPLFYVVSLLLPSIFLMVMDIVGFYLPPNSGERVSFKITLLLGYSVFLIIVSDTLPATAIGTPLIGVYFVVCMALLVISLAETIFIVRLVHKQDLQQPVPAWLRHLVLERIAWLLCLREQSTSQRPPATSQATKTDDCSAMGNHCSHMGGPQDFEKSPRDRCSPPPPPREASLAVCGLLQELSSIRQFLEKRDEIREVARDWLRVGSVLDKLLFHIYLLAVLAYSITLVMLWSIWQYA
Experimental: Compound Affinity for the human 5-HT3 Receptor (Assay B)
The relative affinity of the various compounds for the human 5-HT3 receptor was measured in a radioligand binding assay, using a scintillation proximity assay (SPA) format. Test compounds were dissolved to 10 mM in 100% DMSO, then serially diluted at 10× assay concentrations in 100% DMSO in 96-well polypropylene plates and further diluted to 4× assay concentrations with the assay buffer. […] Binding reactions were set up in wells of PicoPlates-96 (Perkin Elmer) by adding consecutively 50 μL of each competing compound or buffer, SPA beads, the radioligand and 5-HT3 receptor membranes. After 60-min incubation at room temperature on a Nutator mixer, plates were centrifuged for 15 min at 1,500 rpm, followed by incubation in the dark for 30 min. Radioactivity was counted in the TopCount microplate counter (Perkin Elmer) for 5 min. […] Specific binding was determined by subtracting nonspecific binding from total binding. All experiments were performed in duplicate using ten concentrations of a competing ligand, with ondansetron included as a control in every run. IC50 values were determined from specific binding data using XLfit4.1 curve fitting software from IDBS Ltd. Ki values were then calculated from the Cheng-Prusoff equation.

Question: With `COc1ccc(Nc2nc3c(C(=O)N[C@H]4C[C@H]5CCC[C@@H](C4)N5C)cccc3o2)cc1` [Example 59, Endo-N-(9-methyl-9-azabicyclo[3.3.1]nonan-3-yl)-2-(4-methoxyphenylamino)benzoxazole-4-carboxamide Hydrochloride] as the compound, how does the Ki read?
Answer: The Ki was 7.6 nM.

Question: With `CC(O)CCNc1nc2c(C(=O)N[C@H]3C[C@H]4CCC[C@@H](C3)N4C)cccc2o1` (stereo partly drawn) [Example 61, Endo-N-(9-methyl-9-azabicyclo[3.3.1]nonan-3-yl)-2-(3-hydroxybutylamino)benzoxazole-4-carboxamide Hydrochloride] as the compound, how does the Ki read?
Answer: Its Ki is 19.9 nM.

Question: For `CC[C@H]1COCCN1c1nc2c(C(=O)NC3CC4CCCC(C3)N4C)cc(Cl)cc2o1` (stereo partly drawn) [Example 62, Endo-N-(9-Methyl-9-azabicyclo[3.3.1]nonan-3-yl)-6-chloro 2-((S-3-ethylmorpholino)benzoxazole-4-carboxamide Hydrochloride], which Ki is on record?
Answer: The Ki was 6.3 nM.

Question: `C[C@H]1CN(C)CCN1c1nc2c(C(=O)NC3CC4CCCC(C3)N4C)cc(Cl)cc2o1` (stereo partly drawn) [Example 63, Endo-N-(9-methyl-9-azabicyclo[3.3.1]nonan-3-yl)-6-chloro-2-((S-2,4-dimethylpiperazin-1-yl)benzoxazole-4-carboxamide Hydrochloride] was tested. Which Ki did it give?
Answer: The Ki was 16.1 nM.

Question: For `COc1ccccc1Nc1nc2c(C(=O)N[C@H]3C[C@H]4CCC[C@@H](C3)N4C)cccc2o1` [Example 64, Endo-N-(9-methyl-9-azabicyclo[3.3.1]nonan-3-yl)-2-(2-methoxyphenylamino)benzoxazole-4-carboxamide Hydrochloride], which Ki is on record?
Answer: Its Ki is 16.2 nM.

Question: `CCC[C@H]1COCCN1c1nc2c(C(=O)NC3CC4CCCC(C3)N4C)cccc2o1` (stereo partly drawn) [Example 66, Endo-N-(9-Methyl-9-azabicyclo[3.3.1]nonan-3-yl)-2-((S)-3-propylmorpholino)benzoxazole-4-carboxamide Hydrochloride] was tested. Which Ki did it give?
Answer: The Ki was 4.1 nM.

Question: `CC(C)C[C@H]1COCCN1c1nc2c(C(=O)NC3CC4CCCC(C3)N4C)cccc2o1` (stereo partly drawn) [Example 67, Endo-N-(9-Methyl-9-azabicyclo[3.3.1]nonan-3-yl)-2-((S)-3-isobutylmorpholino)benzoxazole-4-carboxamide Hydrochloride] was tested. Which Ki did it give?
Answer: The Ki was 3.9 nM.

Question: `CN1C2CCCC1CC(NC(=O)c1cccc3oc(N4CCOC[C@@H]4C(C)(C)C)nc13)C2` (stereo partly drawn) [Example 68, Endo-N-(9-Methyl-9-azabicyclo[3.3.1]nonan-3-yl)-2-((S)-3-tert-butylmorpholino)benzoxazole-4-carboxamide Hydrochloride] was tested. Which Ki did it give?
Answer: Its Ki is 2 nM.

Question: `C[C@@H]1CNC[C@@H](C)N1c1nc2c(C(=O)NC3CC4CCCC(C3)N4C)cccc2o1` (stereo partly drawn) [Example 69, Endo-N-(9-Methyl-9-azabicyclo[3.3.1]nonan-3-yl)-2-((2R,6R)-2,6-dimethylpiperazin-1-yl)benzoxazole-4-carboxamide Hydrochloride] was tested. Which Ki did it give?
Answer: Its Ki is 32.7 nM.

Question: Which Ki does the source give for `CN1[C@@H]2CCC[C@H]1C[C@@H](NC(=O)c1cccc3oc(NC4CCCCC4)nc13)C2` [Example 70, Endo-N-(9-Methyl-9-azabicyclo[3.3.1]nonan-3-yl)-2-(cyclohexylamino)benzoxazole-4-carboxamide Hydrochloride] here?
Answer: Its Ki is 19.2 nM.

Question: For `CC(C)C[C@H]1CN(Cc2ccccc2)CCN1c1nc2c(C(=O)NC3CC4CCCC(C3)N4C)cccc2o1` (stereo partly drawn) [Example 71, Endo-N-(9-Methyl-9-azabicyclo[3.3.1]nonan-3-yl)-2-((2S)-2-isobutyl-4-benzylpiperazin-1-yl)benzoxazole-4-carboxamide Hydrochloride], which Ki is on record?
Answer: Its Ki is 48.6 nM.

Question: How did the Ki turn out when `CN1[C@@H]2CCC[C@H]1C[C@@H](NC(=O)c1cccc3oc(=S)[nH]c13)C2` [Example 72, Endo N-(9-methyl-9-azabicyclo[3.3.1]nonan-3-yl)-2-thioxo-2,3-dihydrobenzoxazole-4-carboxamide Hydrochloride] was run?
Answer: The Ki was 30.8 nM.

Question: With `C[C@H]1CNC[C@H](C)N1c1nc2c(C(=O)NC3CC4CCCC(C3)N4C)cccc2o1` (stereo partly drawn) [Example 73, Endo-N-(9-Methyl-9-azabicyclo[3.3.1]nonan-3-yl)-2-((2S,6S)-2,6-dimethylpiperazin-1-yl)benzoxazole-4-carboxamide Hydrochloride] as the compound, how does the Ki read?
Answer: The Ki was 2.2 nM.

Question: How did the Ki turn out when `CC(C)C[C@H]1CN(c2nc3c(C(=O)NC4CC5CCCC(C4)N5C)cccc3o2)CCN1` (stereo partly drawn) [Example 74, Endo-N-(9-Methyl-9-azabicyclo[3.3.1]nonan-3-yl)-2-((3S)-3-isobutylpiperazine-1-yl)benzoxazole-4-carboxamide Hydrochloride] was run?
Answer: The Ki was 72.9 nM.

Question: For `CC(C)[C@H]1CNCCN1c1nc2c(C(=O)NC3CC4CCCC(C3)N4C)cccc2o1` (stereo partly drawn) [Example 76, Endo-N-(9-Methyl-9-azabicyclo[3.3.1]nonan-3-yl)-2-((S)-2-isopropylpiperazin-1-yl)benzoxazole-4-carboxamide Hydrochloride], which Ki is on record?
Answer: The Ki was 9.8 nM.

Question: `CC(C)C[C@H]1CNCCN1c1nc2c(C(=O)NC3CC4CCCC(C3)N4C)cccc2o1` (stereo partly drawn) [Example 77, Endo-N-(9-Methyl-9-azabicyclo[3.3.1]nonan-3-yl)-2-((S)-2-isobutylpiperazine-1-yl)benzoxazole-4-carboxamide Hydrochloride] was tested. Which Ki did it give?
Answer: Its Ki is 6.4 nM.

Question: `CC(C)[C@H]1CN(c2nc3c(C(=O)NC4CC5CCCC(C4)N5C)cccc3o2)CCN1` (stereo partly drawn) [Example 78, Hydrochloride] was tested. Which Ki did it give?
Answer: The Ki was 25.8 nM.

Question: Which Ki does the source give for `CN1[C@@H]2CCC[C@H]1C[C@@H](NC(=O)c1cccc3oc(N4CCn5ccnc5C4)nc13)C2` [Example 79, Endo-N-(9-Methyl-9-azabicyclo[3.3.1]nonan-3-yl)-2-(5,6-dihydroimidazo[1,2-a]pyrazin-7(8H)-yl)benzoxazole-4-carboxamide Hydrochloride] here?
Answer: The Ki was 29.3 nM.

Question: For `CN1C2CCCC1CC(NC(=O)c1cc(Cl)cc3oc(N4CCOC[C@@H]4C(C)(C)C)nc13)C2` (stereo partly drawn) [Example 80, Endo N-(9-Methyl-9-azabicyclo[3.3.1]nonan-3-yl)-2-((S)-3-tert-butylmorpholino)-6-chloro-benzoxazole-4-carboxamide Hydrochloride], which Ki is on record?
Answer: The Ki was 29.4 nM.

Question: Which Ki does the source give for `C[C@H]1COC[C@H](C)N1c1nc2c(C(=O)NC3CC4CCCC(C3)N4)cccc2o1` (stereo partly drawn) [Example 81, Endo-N-(9-Azabicyclo[3.3.1]nonan-3-yl)-2-((3S,5S)-3,5-dimethylmorpholino)benzoxazole-4-carboxamide Hydrochloride] here?
Answer: The Ki was 16.8 nM.

Question: With `CN1[C@@H]2CCC[C@H]1C[C@@H](NC(=O)c1cccc3oc(N4CCS(=O)(=O)CC4)nc13)C2` [Example 82, Endo-N-(9-Methyl-9-azabicyclo[3.3.1]nonan-3-yl)-2-(thiomorpholine 1,1-dioxide)benzoxazole-4-carboxamide Hydrochloride] as the compound, how does the Ki read?
Answer: Its Ki is 132 nM.

Question: Which Ki does the source give for `CCN(C)c1nc2c(C(=O)N[C@@H]3CN4CCC3CC4)cccc2o1` [Example 83, (S)—N-(quinuclidine-8-yl)-2-(ethyl(methyl)amino)benzoxazole-4-carboxamide Hydrochloride] here?
Answer: The Ki was 6.8 nM.

Question: Which Ki does the source give for `CC[C@H]1CNCCN1c1nc2c(C(=O)NC3CC4CCCC(C3)N4C)cccc2o1` (stereo partly drawn) [Example 84, Endo-N-(9-Methyl-9-azabicyclo[3.3.1]nonan-3-yl)-2-((S)-2-ethylpiperazine-1-yl)benzoxazole-4-carboxamide Hydrochloride] here?
Answer: Its Ki is 11.3 nM.

Question: How did the Ki turn out when `CC(C)N(C)c1nc2c(C(=O)N[C@@H]3CN4CCC3CC4)cccc2o1` [Example 85, (S)—N-(quinuclidine-8-yl)-2-(isopropyl(methyl)amino)benzoxazole-4-carboxamide Hydrochloride] was run?
Answer: Its Ki is 28.9 nM.
